Like-named read-outs stand apart in the source and are kept apart here.

Series [1] has as its system grayed hair. In words: Half-Head technique, two groups of 20 persons: preventing graying of the hair and restoring grayed hair (Example 6 procedure). The class given is in vivo, human (men and women). The settings on record: in words; hair creams.
Text: Two groups each of which comprised 20 persons (50 to 60 years old; comprising men and women) were selected and the hair tonic Samples (S-I and S-II) were separately applied to scalp of each person of one group in accordance with Half-Head technique wherein the hair tonics I and II were separately applied to the right half of the scalp and the left half thereof, on the other hand Samples (S-II and S-III) were likewise separately applied to each person of the other group in the same manner twice a day (in the morning and at night) for 3 months.
Series [2] can be described thus: Safety examination (overall, in words). The settings on record: same procedures as in Example 1.
The subject of series [3] is grayed hair. The experiment in a line: Half-Head technique: preventing graying of the hair and restoring grayed hair to its natural color (Example 1 procedure). It is filed as in vivo, human (men and women). The settings on record: for Comp. Sample is better / Comp. Sample is somewhat better / Same / This Invention is better / This Invention is somewhat better: 3 months; for effect of preventing graying and restoring grayed hair, compared with Example 2 / effect on graying, compared with Example 12 / amount of grayed hair / effect of preventing graying of the hair and restoring grayed hair to its natural color / effect of preventing graying and restoring grayed hair: in words; for effect of preventing graying and restoring grayed hair, compared with Example 2: hair cream, used instead of N^6,O^2'-DScAMP-Na; for effect on graying, compared with Example 12: hair tonics, used in place of FAD-2Na; for amount of grayed hair / effect of preventing graying of the hair and restoring grayed hair to its natural color: compared with comparative sample free from the component; for effect of preventing graying and restoring grayed hair: hair tonic.
Text: The effectiveness of the hair tonics thus prepared were estimated in the following manner: Twenty statistically equivalent persons (comprising men and women aged 30 to 60 years) were selected and Samples of the hair tonics were applied to their scalps in accordance with the Half-Head technique, in which Samples were separately applied to the right and left half portions of the scalp, twice a day (in the morning and at night) for three months. The effects of preventing graying of the hair and restoring grayed hair to its natural color were estimated by comparing the conditions of the portions observed before and after the application of Samples.

The conditions of series [4]: in words; cited from earlier work.
For series [5] the following is noted: in words; cited from earlier work. This is another data set of the same source.
The test system of series [6] is guinea pig. The settings on record: in vivo.
Series [7] is described as follows: Acute Oral Toxicity (rat). Particulars: in vivo.
Series [8] concerns guinea pig. In words: Skin Sensitization (guinea pig). The class given is in vivo.
Series [9] concerns guinea pig. In words: Phototoxicity (guinea pig). The class given is in vivo.
Series [10] concerns guinea pig. The experiment in a line: Photosensitization (guinea pig). The class given is in vivo.
A further series has as its system rabbit. Particulars: in vivo.
The conditions of series [11]: in vivo.
The subject of series [12] is scalp. The settings on record: in vivo.
Text: (§1) Twenty statistically equivalent persons (comprising men and women aged 30 to 60 years) were selected and Samples of the hair tonics were applied to their scalps in accordance with the Half-Head technique, in which Samples were separately applied to the right and left half portions of the scalp, twice a day (in the morning and at night) for three months. The effects of preventing graying of the hair and restoring grayed hair to its natural color were estimated by comparing the conditions of the portions observed before and after the application of Samples.
In another series the test system is human. Particulars: in vivo.
The test system of series [13] is scalp. In words: Condition of the scalp during and after use for 3 months.
Text: as §1
The mark [14] stands for this setting: Table XXV, hair tonic with 0.1% vs tonic without.
Where [15] appears, read: Table III, of 20 persons, hair tonic with 0.05% vs tonic without, twice a day.
Setting [16] is: Table VIII, milky lotion with 0.2% vs lotion without.
Where [17] appears, read: Table X, hair cream with 0.8% vs cream without.

With `Cc1cc2nc3c(=O)[nH]c(=O)nc-3n(C[C@H](O)[C@H](O)[C@H](O)COP(=O)(O)OP(=O)(O)OC[C@H]3O[C@@H](n4cnc5c(N)ncnc54)[C@H](O)[C@@H]3O)c2cc1C` [FAD, flavin adenine dinucleotide], in the series with grayed hair [1], the “effect on graying, compared with Example 7” value was “approximately the same results as those in Example 7”.
Regarding `Cc1cc2nc3c(=O)[nH]c(=O)nc-3n(C[C@H](O)[C@H](O)[C@H](O)COP(=O)(O)OP(=O)(O)OC[C@H]3O[C@@H](n4cnc5c(N)ncnc54)[C@H](O)[C@@H]3O)c2cc1C` [FAD-2Na], the safety result in series [2] was “had no problems such as skin irritation and thus had extremely high safety”. In addition, in the series with grayed hair [3] (setting [14]), the “Comp. Sample is better” value is 0, the “Comp. Sample is somewhat better” value was 0, the Same was found to be 4 and the “This Invention is better” value is 8. Moreover, the “This Invention is somewhat better” value with grayed hair [3] (setting [14]) is 8.
As for `CCCC(=O)O[C@@H]1[C@@H]2OP(=O)(O)OC[C@H]2O[C@H]1n1c(Br)nc2c(N)ncnc21` [O^2'-MB-8BrcAMP-Na], the “effect of preventing graying and restoring grayed hair, compared with Example 2” value (“effect … compared with Example 2” below) in the series on grayed hair [3] is “Substantially the same excellent effect as in Example 2”.
Consider `CCCC(=O)O[C@@H]1[C@@H]2OP(=O)(O)OC[C@H]2O[C@H]1n1cnc2c(N)ncnc21` [O^2 -MBcAMP-Na], for which the “effect on graying, compared with Example 7” value in the series with grayed hair [1] was “approximately the same results as those in Example 7”.
As for `CCCCCC(=O)Nc1ncnc2c1ncn2C1OC2COP(=O)([O-])OC2C1O.[Na+]` (stereo not drawn) [N^6-MHcAMP-Na], the “effect on graying, compared with Example 12” value with grayed hair [3] is reported as “substantially the same effect as in Example 12”.
Turning to `C=C1CC[C@H](O)C/C1=C/C=C1\CCC[C@]2(C)[C@@H]([C@H](C)CCCC(C)C)CC[C@@H]12` [vitamin D3], in [4], the side-effects result was “tend to cause side-effectssuch as hypervitaminosis D or hypercalcemia”. The “stability in the air” value in series [5] is “extremely unstable in the air and easily undergo oxidation”.
For orientation: LD50 means the dose at which mortality reaches 50%. Consider `CCCC(=O)Nc1ncnc2c1ncn2[C@@H]1O[C@@H]2COP(=O)(O)O[C@H]2[C@H]1OC(=O)CCC` [N^6,O^2'-DBcAMP-Na], for which the “Primary Skin Irritation” value in the series with guinea pig [6] is on record as “non-irritant”. Moreover, in series [7], the LD50 was at least 5000 mg/kg. For the same compound, the “Skin Sensitization” value in the series with guinea pig [8] is given as “negative”. Further, in the series on guinea pig [9], the Phototoxicity entry was “negative”. For the same compound, the Photosensitization entry with guinea pig [10] is reported as “negative”. In addition, in the series on rabbit, the “Ocular-mucous Membrane Irritation” value is “non-irritant”. Also, in series [11], the safety entry is listed as “extremely high”. Also, in the series with scalp [12], the “abnormality in the condition of the scalp” value (from here on “abnormality in the condition”) was “No abnormality was observed”. Also, in the series on grayed hair [3] (setting [15]), the “Comp. Sample is better” value is 0, the “Comp. Sample is somewhat better” value is 0, the Same is 2 and the “This Invention is better” value is listed as 11. Further, the “This Invention is somewhat better” value in the series on grayed hair [3] (setting [15]) is recorded as 7. For the same compound, in the series on grayed hair [3], the “amount of grayed hair” value is “reduced the amount of grayed hair more effectively than the comparative hair tonic”; the “effect of preventing graying of the hair and restoring grayed hair to its natural color” value (shortened to “effect … to its natural color”) is “remarkable effect”. Further, the “effect of preventing graying and restoring grayed hair” value in the series with grayed hair [3] (amount of 0.005%) is on record as “little effect”. Moreover, the “effect of preventing graying and restoring grayed hair” value with grayed hair [3] (amount of 0.01) is “effective”. The “Human Patch Test” value with human is reported as “non-irritant”.
For `CCCCCCCC(=O)OC1C2OP(=O)([O-])OCC2OC1n1cnc2c(N)ncnc21.[Na+]` (stereo not drawn) [O^2'-MOcAMP-Na], the “effect on graying, compared with Example 12” value in the series with grayed hair [3] is reported as “substantially the same effect as in Example 12”.
Turning to `CCCCCCCCC(=O)O` [nonanoic acid], the “effect on graying, compared with Example 7” value with grayed hair [1] is reported as “approximately the same results as in Example 7”.
Take `Nc1ncnc2c1nc(O)n2[C@@H]1O[C@@H]2COP(=O)(O)O[C@H]2[C@H]1O` [8-OHcAMP-Na]: in the series on grayed hair [3], the “effect … compared with Example 2” value is “Substantially the same excellent effect as in Example 2”.
As for `Nc1ncnc2c1nc(Sc1ccc(Cl)cc1)n2[C@@H]1O[C@@H]2COP(=O)(O)O[C@H]2[C@H]1O` [8-C1PhScAMP-Na], the “effect … compared with Example 2” value in the series with grayed hair [3] is listed as “Substantially the same excellent effect as in Example 2”.
Regarding `CCCCCCCCCCCOCC(COCCCCCCCCCCC)OCCCCCCCCCCC` [triundecyl glycerylether], the “effect on graying, compared with Example 7” value in the series with grayed hair [1] is recorded as “approximately the same results as in Example 7”.
As to `Nc1ncnc2c1ncn2[C@@H]1O[C@@H]2COP(=O)([O-])O[C@H]2[C@H]1OC(=O)CCC(=O)O.[Na+]` [O^2'-MScAMP-Na], the safety result in [2] is “had no problems such as skin irritation and thus had extremely high safety”. Also, in the series with grayed hair [3] (setting [16]), the “Comp. Sample is better” value is reported as 0, the “Comp. Sample is somewhat better” value is listed as 0, the Same turned out to be 3 and the “This Invention is better” value was found to be 10. In addition, the “This Invention is somewhat better” value in the series on grayed hair [3] (setting [16]) worked out at 7. In addition, in the series on grayed hair [3], the “amount of grayed hair” value is “the amount of grayed hair was reduced”; the “effect … to its natural color” value is “excellent effect”. Also, the “abnormality in the condition” value in the series on scalp [13] is reported as “no abnormality was observed”.
`CC(=O)Nc1ncnc2c1nc(N)n2C1OC2COP(=O)([O-])OC2C1OC(C)=O.[Na+]` (stereo not drawn) [N^6,O^2'-DA-8-NH2 cAMP-Na]: the “effect … compared with Example 2” value with grayed hair [3] is recorded as “Substantially the same excellent effect as in Example 2”.
Still for that read-out and setting: as for `Nc1ncnc2c1nc(Cl)n2[C@@H]1O[C@@H]2COP(=O)(O)O[C@H]2[C@H]1O` [8-ClcAMP-Na], the entry is “Substantially the same excellent effect as in Example 2”.
Turning to `CCCC(=O)Nc1ncnc2c1ncn2[C@@H]1O[C@@H]2COP(=O)(O)O[C@H]2[C@H]1O` [N^6-MBcAMP-Na], in [2], the safety result is “had no problems such as skin irritation and thus had extremely high safety”. In addition, in the series on grayed hair [3] (setting [17]), the “Comp. Sample is better” value is reported as 0, the “Comp. Sample is somewhat better” value was 0, the Same was determined as 4 and the “This Invention is better” value turned out to be 9. The “This Invention is somewhat better” value in the series with grayed hair [3] (setting [17]) amounted to 7. In the series with grayed hair [3], the “amount of grayed hair” value is recorded as “the amount of grayed hair was reduced”; the “effect … to its natural color” value is given as “excellent effect”. Further, the “abnormality in the condition” value in the series on scalp [13] is “no abnormality was observed”.
On to `Nc1ncnc2c1nc(S)n2[C@@H]1O[C@@H]2COP(=O)(O)O[C@H]2[C@H]1O` [8-SHcAMP-Na], for which the “effect … compared with Example 2” value with grayed hair [3] is “Substantially the same excellent effect as in Example 2”.
On the same count and under the same terms, in the case of `Nc1ncnc2c1nc(Br)n2[C@@H]1O[C@@H]2COP(=O)(O)O[C@H]2[C@H]1O` [8-BrcAMP-Na] it was “Substantially the same excellent effect as in Example 2”.

The values above are taken from patent publication US5376643A, “Composition for application to hair” (priority 1986, dated 1994).
